Two compounds from US10662210B2, “Compositions and methods comprising osmium for the treatment of cancers” (Massachusetts Institute of Technology, priority 2014, dated 2020) can be followed below.

One data set deals with ER of A2780 cells. The data set can be described thus: Fluorescence microscopy of ER size (ER tracker Blue). Type of data set: cell-based, human. The conditions noted are these: 10 μM. The method, then:
This finding led to the investigation of the possibility that 4 may induce endoplasmic reticulum (ER) stress. Co-administration of 4 and salubrinal (10 μM), a known ER stress inhibitor, reduced the cytotoxicity of 4 in A2780 cells. […] To further validate the ER as the main target for 4, the expression of proteins related to the unfolded protein response (UPR) was monitored. […] ER membrane expansion is widely associated with ER stress. With this fact in mind the ER size of A2780 cells upon incubation with 4 were examined using fluorescence microscopy. Relative to untreated controls (FIG. 3B), cells exposed to 4 (10 μM) for 4 h had 25.1% larger ER coverage (FIG. 3C). […]
A2780 cells (1×10^4) were incubated with and without 4 (10 μM) for 6 h. […] Fluorescence imaging experiments were performed using a Zeiss Axiovert 200M inverted epifluorscence microscope with a Hamamatsu EM-CCD digital camera C9100 and a MS200 XY Piezo Z stage (Applied Scientific Instruments, Inc.). […] The exposure time for acquisition of fluorescence images was kept constant for each series of images at each channel. The ER and whole cell size was quantified using ImageJ (version 1.45, NIH). The size of the whole cell was measured by tracing the outline of the cell membrane in the DIC view. The size of the ER was measured by tracing the outline of emission observed from ER tracker Blue in the DAPI (blue) channel. […]

Data set [1] can be described thus: Water-octanol partition coefficient (log P), shake-flask method with GF-AAS. Type of data set: physicochemical. The following applies: room temperature, 50 μM. The method, then: Those of ordinary skill in the art would be knowledgeable of methods of determining the water-octanol partition coefficient of compounds. For example, the log P of a compound may be obtained using the shake-flask method and graphite furnace atomic absorption spectroscopy (GF-AAS). Briefly, in the shake-flask method, octanol is pre-saturated with water by overnight incubation with shaking of a biphasic mixture of the two at room temperature. A portion of 0.5 mL water containing 50 μM of the given compound is incubated with the pre-saturated octanol (0.5 mL) in a 1.5 mL tube. The tube is shaken at room temperature for 3 hours. The two phases are separated by centrifugation and the osmium content (concentration) in each phase is determined by GFAAS. The log P is then calculated using the formula below: log P=log 10[(concentration of osmium in the octanol layer)/(concentration of osmium in the water layer)].
The log P values were obtained using the shake-flask method and graphite furnace atomic absorption spectroscopy (GF-AAS). Octanol used in this experiment was pre-saturated with water by overnight incubation with shaking of a biphasic mixture of the two at room temperature. A portion of 0.5 mL water containing 50 μM of the given compound was incubated with the pre-saturated octanol (0.5 mL) in a 1.5 mL tube. The tube was shaken at room temperature for 3 h. The two phases were separated by centrifugation and the osmium content (concentration) in each phase was determined by GFAAS. All the experiments were carried out in triplicate. The log P was then calculated using the formula below: Log P=log 10[(conc. of osmium in the octanol layer)/(conc. of osmium in the water layer)].

The subject of another data set is HMLER^tax CSC-enriched. The data set is described as follows: Cytotoxicity against CSC-enriched breast cancer cells. Type of data set: cell-based. The text has this:
(§1) Cancer relapse is strongly linked to the existence of CSCs. […] Conventional chemotherapy and radiotherapy are often ineffective against CSCs. Although current therapies effectively reduce tumor mass by destroying the bulk of cancer cells, they are unable to remove CSCs, which persist and generate new tumors, often of a far more aggressive nature. Therefore, in order to improve clinical outcomes, treatments must have the ability to kill the entirety of cancer cells, including CSCs. The osmium compound, described in Formula (I), wherein X^1, X^2, and X^3 were chloride ligands and the bidentate ligand was a 1,10-phenanthroline ligand, was able to kill breast cancer cells (HMLER) enriched with CSCs, 2.3-fold better than CSC-depleted breast cancer cells. […] The selectivity of the osmium compound can be seen in Table 2 as well as FIGS. 17A-B and 18.
(§2) The colorimetric MTT assay was used to determine the toxicity of the osmium complexes and cisplatin. Cells (2×10^3) were seeded in each well of a 96-well plate. After incubating the cells overnight, various concentrations of test compound (0.3-100 μM) were added and incubated for 72 h (total volume 200 μL). The test compounds were prepared as 10 mM solutions in DMSO and diluted using media. The final concentration of DMSO in each well was 0.5% and this amount was present in the untreated control as well. Cisplatin was prepared as a 5 mM solution in PBS and diluted further using media. After 72 h, the medium was removed, 200 μL of a 0.4 mg/mL solution of MTT in DMEM or RPMI was added, and the plate was incubated for an additional 1-2 h. The DMEM/MTT or RPMI/MTT mixture was aspirated and 200 μL of DMSO was added to dissolve the resulting purple formazan crystals. The absorbance of the solution wells was read at 550 nm. Absorbance values were normalized to DMSO-containing control wells and plotted as concentration of test compound versus % cell viability. IC50 values were interpolated from the resulting dose dependent curves. The reported IC50 values are the average from at least three independent experiments, each of which consisted of six replicates per concentration level.

The nature of data set [2]: Stability of 2 by UV-vis spectroscopy and variable temperature 1H NMR. Type of data set: physicochemical. The text has this:
The bidentate ligands used were 2,2′-bipyridine, 1,10-phenanthroline, 3,4,7,8-tetramethyl-1,10-phenanthroline, and 4,7-diphenyl-1,10-phenanthroline. The complexes were synthesized by reacting (Bu4N)[OsNCl4] with the appropriate ligand in acetone or dichloromethane. Characterization of 1-4 and the crystal structure of 4 are reported in Example 4. Prior to carrying out cellular studies, the stability of 2, taken as a representative member of the family, in phosphate buffered saline (PBS) and DMEM cell culture media was established by UV-vis spectroscopy. […] The water-octanol coefficient (log P) for each compound was also determined.

The test system of a further data set is HMLER CSC-depleted. The data set is described as follows: Cytotoxicity against CSC-depleted breast cancer cells. Type of data set: cell-based.
From the text: as §1, §2

One may read the IC50 as the concentration that gives 50% inhibition.

Take `[N]#[Os]1([Cl])([Cl])([Cl])[N]2C=CC(c3ccccc3)=c3ccc4c(c32)[N]1C=CC=4c1ccccc1` [Complex 4, OsN(4,7-diphenyl-1,10-phenanthroline)Cl3]: in the data set with ER of A2780 cells (4 h), the “larger ER coverage relative to untreated controls” value was 25.1%. Further, in the data set on ER of A2780 cells (treated samples), the “ER size relative to the whole cell” value was “about 55%”. In addition, in data set [1], the “log P (water-octanol coefficient)” value is 1.84.

`[N]#[Os]1([Cl])([Cl])([Cl])[N]2C=CC=c3ccc4c(c32)[N]1C=CC=4` [Complex 2, OsN(1,10-phenanthroline)Cl3]: the IC50 in the data set with HMLER^tax CSC-enriched came to 4.91 µM; with HMLER CSC-depleted, 11.2 µM. The “HMLER^tax selectivity” value with HMLER^tax CSC-enriched (CSC-enriched vs CSC-depleted) was determined as 2.31. Also, the “log P (water-octanol coefficient)” value in data set [1] amounted to 1.26. Moreover, the “stability in phosphate buffered saline (PBS) and DMEM cell culture media” value in data set [2] (UV-vis spectroscopy) is “established”. Moreover, in data set [2] (variable temperature 1H NMR spectroscopy), the thermal stability result is reported as “demonstrated”.
